Laboratory results reported in ChEMBL document CHEMBL4190187, “Discovery of pyrazolopyrimidine derivatives as novel inhibitors of ataxia telangiectasia and rad3 related protein (ATR)” (Bioorg Med Chem Lett, 2017).

How the values were obtained:
[1] = biological target: Mitogen-activated protein kinase kinase kinase 3 (Homo sapiens) (UniProt Q99759); experiment: Inhibition of recombinant full-length human MEKK3 at 1 uM using MBP as substrate after 40 mins in presence of [gamma-33P]ATP by scintillation counting method
[2] = tested on: PI3-kinase p110-alpha/p85-alpha (Homo sapiens), P27986+P42336 [E542K]; experiment: Inhibition of recombinant full-length human p110a E542K mutant/p85a at 1 uM using phosphatidylinositol 4,5-bisphosphate as substrate after 40 mins in presence of [gamma-33P]ATP by scintillation counting method; format: protein-complex assay
[3] = biological target: Mitogen-activated protein kinase 8 (Homo sapiens) (UniProt P45983); experiment: Inhibition of recombinant full-length human JNK1alpha1 at 1 uM using ATF2 as substrate after 40 mins in presence of [gamma-33P]ATP by scintillation counting method
[4] = biological target: Tyrosine-protein kinase FRK (Homo sapiens) (UniProt P42685); experiment: Inhibition of recombinant human PTK5 (218 to end residues) at 1 uM using GGEEEEYFELVKKKK as substrate after 40 mins in presence of [gamma-33P]ATP by scintillation counting method
[5] = biological target: Tyrosine-protein kinase SYK (Homo sapiens) (UniProt P43405); experiment: Inhibition of recombinant full-length human Syk at 1 uM using poly(Glu,Tyr) 4:1 as substrate after 40 mins in presence of [gamma-33P]ATP by scintillation counting method
[6] = biological target: TGF-beta receptor type-1 (Homo sapiens) (UniProt P36897); experiment: Inhibition of recombinant activated human TGFBR1 (200 to end residues) at 1 uM using casein as substrate after 40 mins in presence of [gamma-33P]ATP by scintillation counting method
[7] = biological target: Serine/threonine-protein kinase Nek7 (Homo sapiens) (UniProt Q8TDX7); experiment: Inhibition of recombinant human NEK7 (2 to end residues) at 1 uM using FLAKSFGSPNRAYKK as substrate after 40 mins in presence of [gamma-33P]ATP by scintillation counting method
[8] = tested on: Hepatocyte growth factor receptor (Homo sapiens), P08581 [Y1248C]; experiment: Inhibition of recombinant human Met Y1248C mutant (974 to end residues) at 1 uM using KKKGQEEEYVFIE as substrate after 40 mins in presence of [gamma-33P]ATP by scintillation counting method
[9] = tested on: Proto-oncogene tyrosine-protein kinase Src (Homo sapiens), P12931 [T341M]; experiment: Inhibition of recombinant full-length human Src T341M mutant at 1 uM using GGEEEEYFELVKKKK as substrate after 40 mins in presence of [gamma-33P]ATP by scintillation counting method
[10] = tested on: Hepatocyte growth factor receptor (Homo sapiens), P08581 [M1268T]; experiment: Inhibition of recombinant human Met M1268T mutant (974 to end residues) at 1 uM using KKKGQEEEYVFIE as substrate after 40 mins in presence of [gamma-33P]ATP by scintillation counting method
[11] = biological target: Tyrosine-protein kinase ABL2 (Mus musculus) (UniProt Q4JIM5); experiment: Inhibition of A562 insertion recombinant mouse ARG (27 to end residues) at 1 uM using EAIYAAPFAKKK as substrate after 40 mins in presence of [gamma-33P]ATP by scintillation counting method
[12] = tested on: Fibroblast growth factor receptor 2 (Homo sapiens), P21802 [N549H]; experiment: Inhibition of recombinant human FGFR2 N549H mutant (456 to 770 residues) at 1 uM using GGEEEEYFELVKKKK as substrate after 40 mins in presence of [gamma-33P]ATP by scintillation counting method
[13] = biological target: Epithelial discoidin domain-containing receptor 1 (Homo sapiens) (UniProt Q08345); experiment: Inhibition of recombinant human DDR1 (492 to end residues) at 1 uM using KKKSPGEYVNIEFG as substrate after 40 mins in presence of [gamma-33P]ATP by scintillation counting method
[14] = biological target: Tyrosine-protein kinase Fgr (Homo sapiens) (UniProt P09769); experiment: Inhibition of recombinant human FGR (2 to end residues) at 1 uM using poly(Glu,Tyr) 4:1 as substrate after 40 mins in presence of [gamma-33P]ATP by scintillation counting method
[15] = biological target: Fibroblast growth factor receptor 4 (Homo sapiens) (UniProt P22455); experiment: Inhibition of recombinant human FGFR4 (442 to 755 residues) at 1 uM using poly(Glu,Tyr) 4:1 as substrate after 40 mins in presence of [gamma-33P]ATP by scintillation counting method
[16] = biological target: Dual specificity mitogen-activated protein kinase kinase 7 (Homo sapiens) (UniProt O14733); experiment: Inhibition of recombinant human MKK7beta (2 to end residues) at 1 uM using inactive JNK171 as substrate after 40 mins in presence of [gamma-33P]ATP by scintillation counting method
[17] = biological target: PI3K p110 beta/p85 beta (Mus musculus) (UniProt Q8BTI9+O08908); experiment: Inhibition of recombinant full-length mouse p110b/p85b at 1 uM using phosphatidylinositol 4,5-bisphosphate as substrate after 40 mins in presence of [gamma-33P]ATP by scintillation counting method; format: protein-complex assay
[18] = tested on: Tyrosine-protein kinase ABL1 (Homo sapiens), P00519 [H396P]; experiment: Inhibition of recombinant human Abl H396P mutant (27 to end residues) at 1 uM using EAIYAAPFAKKK as substrate after 40 mins in presence of [gamma-33P]ATP by scintillation counting method
[19] = biological target: Serine/threonine-protein kinase MRCK beta (Homo sapiens) (UniProt Q9Y5S2); experiment: Inhibition of recombinant human MRCKbeta (1 to 473 residues) at 1 uM using KKRNRTLTV as substrate after 40 mins in presence of [gamma-33P]ATP by scintillation counting method
[20] = biological target: NUAK family SNF1-like kinase 1 (Homo sapiens) (UniProt O60285); experiment: Inhibition of recombinant human ARK5 (2 to end residues) at 1 uM using KKKVSRSGLYRSPSMPENLNRPR as substrate after 40 mins in presence of [gamma-33P]ATP by scintillation counting method
[21] = biological target: Serine/threonine-protein kinase 32B (Homo sapiens) (UniProt Q9NY57); experiment: Inhibition of recombinant full-length human STK32B at 1 uM using casein as substrate after 120 mins in presence of [gamma-33P]ATP by scintillation counting method
[22] = Metabolic stability in rat liver microsomes assessed as compound remaining at 1 uM in presence of NADPH as cofactor measured after 30 mins by LC-MS/MS method; format: ADME, microsome; conditions: read-out: Stability
[23] = biological target: Phosphorylase b kinase gamma catalytic chain, skeletal muscle/heart isoform (Homo sapiens) (UniProt Q16816); experiment: Inhibition of recombinant full-length human PhKgamma1 at 1 uM using KKLNRTLSFAEPG as substrate after 120 mins in presence of [gamma-33P]ATP by scintillation counting method
Chain of Phosphorylase b kinase gamma catalytic chain, skeletal muscle/heart isoform (Homo sapiens) (Q16816 whole entry, looked up, canonical isoform): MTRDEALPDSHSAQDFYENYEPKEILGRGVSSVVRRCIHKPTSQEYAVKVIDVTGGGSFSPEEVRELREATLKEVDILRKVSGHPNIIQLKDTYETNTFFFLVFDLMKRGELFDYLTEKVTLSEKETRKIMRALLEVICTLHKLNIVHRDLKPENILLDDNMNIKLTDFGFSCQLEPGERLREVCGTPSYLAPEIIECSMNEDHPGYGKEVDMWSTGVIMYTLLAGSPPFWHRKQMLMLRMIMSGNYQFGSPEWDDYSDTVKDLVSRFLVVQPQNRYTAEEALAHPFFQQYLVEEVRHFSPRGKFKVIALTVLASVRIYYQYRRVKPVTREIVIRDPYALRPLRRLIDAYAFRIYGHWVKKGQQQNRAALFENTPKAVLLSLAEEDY

Chain of Tyrosine-protein kinase FRK (Homo sapiens) (P42685 whole entry): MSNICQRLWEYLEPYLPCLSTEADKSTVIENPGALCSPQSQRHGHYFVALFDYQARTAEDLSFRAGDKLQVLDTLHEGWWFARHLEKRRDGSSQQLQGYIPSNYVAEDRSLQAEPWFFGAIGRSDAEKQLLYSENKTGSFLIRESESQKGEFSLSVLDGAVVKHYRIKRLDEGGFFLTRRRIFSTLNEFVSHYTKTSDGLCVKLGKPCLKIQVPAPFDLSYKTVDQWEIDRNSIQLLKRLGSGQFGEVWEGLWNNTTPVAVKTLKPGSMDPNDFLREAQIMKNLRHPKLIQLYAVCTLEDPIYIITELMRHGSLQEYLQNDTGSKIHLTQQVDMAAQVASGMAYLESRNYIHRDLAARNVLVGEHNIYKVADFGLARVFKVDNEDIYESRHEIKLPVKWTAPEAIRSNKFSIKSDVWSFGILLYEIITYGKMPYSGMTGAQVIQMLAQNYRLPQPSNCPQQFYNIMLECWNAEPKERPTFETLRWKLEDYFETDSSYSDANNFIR
Chain of Tyrosine-protein kinase ABL2 (Mus musculus) (Q4JIM5 whole entry, the tested form may be a part): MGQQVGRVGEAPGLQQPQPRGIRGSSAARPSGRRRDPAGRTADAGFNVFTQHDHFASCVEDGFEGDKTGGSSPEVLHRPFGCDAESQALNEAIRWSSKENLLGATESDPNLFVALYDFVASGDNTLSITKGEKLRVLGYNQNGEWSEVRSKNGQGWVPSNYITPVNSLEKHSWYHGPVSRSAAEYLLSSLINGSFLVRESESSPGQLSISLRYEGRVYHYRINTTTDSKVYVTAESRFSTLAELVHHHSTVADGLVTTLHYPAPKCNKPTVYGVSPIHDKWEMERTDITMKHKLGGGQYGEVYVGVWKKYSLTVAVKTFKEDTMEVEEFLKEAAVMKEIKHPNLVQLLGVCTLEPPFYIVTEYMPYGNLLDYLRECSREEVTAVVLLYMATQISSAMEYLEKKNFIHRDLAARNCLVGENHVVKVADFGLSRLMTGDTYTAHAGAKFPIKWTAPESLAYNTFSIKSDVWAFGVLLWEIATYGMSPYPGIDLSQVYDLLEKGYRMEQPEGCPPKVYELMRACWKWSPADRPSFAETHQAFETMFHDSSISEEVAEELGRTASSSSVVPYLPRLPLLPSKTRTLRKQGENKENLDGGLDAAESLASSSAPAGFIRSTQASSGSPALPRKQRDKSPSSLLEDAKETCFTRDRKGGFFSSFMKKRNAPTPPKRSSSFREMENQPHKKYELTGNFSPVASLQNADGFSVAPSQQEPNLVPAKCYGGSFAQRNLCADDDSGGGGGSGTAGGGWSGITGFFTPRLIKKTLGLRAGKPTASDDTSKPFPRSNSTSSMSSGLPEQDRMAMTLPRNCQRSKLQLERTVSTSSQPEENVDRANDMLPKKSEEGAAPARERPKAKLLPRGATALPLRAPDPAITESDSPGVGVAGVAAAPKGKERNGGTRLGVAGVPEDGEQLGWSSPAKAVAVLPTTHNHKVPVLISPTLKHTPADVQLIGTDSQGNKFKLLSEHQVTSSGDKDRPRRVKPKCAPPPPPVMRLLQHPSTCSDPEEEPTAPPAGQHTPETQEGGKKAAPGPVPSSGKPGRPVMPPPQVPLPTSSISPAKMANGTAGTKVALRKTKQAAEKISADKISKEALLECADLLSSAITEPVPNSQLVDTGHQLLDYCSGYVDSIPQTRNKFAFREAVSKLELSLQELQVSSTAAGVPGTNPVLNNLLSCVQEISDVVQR
Chain of Hepatocyte growth factor receptor (Homo sapiens), P08581 [Y1248C] (P08581 with tags, fused parts or gaps Y1248C): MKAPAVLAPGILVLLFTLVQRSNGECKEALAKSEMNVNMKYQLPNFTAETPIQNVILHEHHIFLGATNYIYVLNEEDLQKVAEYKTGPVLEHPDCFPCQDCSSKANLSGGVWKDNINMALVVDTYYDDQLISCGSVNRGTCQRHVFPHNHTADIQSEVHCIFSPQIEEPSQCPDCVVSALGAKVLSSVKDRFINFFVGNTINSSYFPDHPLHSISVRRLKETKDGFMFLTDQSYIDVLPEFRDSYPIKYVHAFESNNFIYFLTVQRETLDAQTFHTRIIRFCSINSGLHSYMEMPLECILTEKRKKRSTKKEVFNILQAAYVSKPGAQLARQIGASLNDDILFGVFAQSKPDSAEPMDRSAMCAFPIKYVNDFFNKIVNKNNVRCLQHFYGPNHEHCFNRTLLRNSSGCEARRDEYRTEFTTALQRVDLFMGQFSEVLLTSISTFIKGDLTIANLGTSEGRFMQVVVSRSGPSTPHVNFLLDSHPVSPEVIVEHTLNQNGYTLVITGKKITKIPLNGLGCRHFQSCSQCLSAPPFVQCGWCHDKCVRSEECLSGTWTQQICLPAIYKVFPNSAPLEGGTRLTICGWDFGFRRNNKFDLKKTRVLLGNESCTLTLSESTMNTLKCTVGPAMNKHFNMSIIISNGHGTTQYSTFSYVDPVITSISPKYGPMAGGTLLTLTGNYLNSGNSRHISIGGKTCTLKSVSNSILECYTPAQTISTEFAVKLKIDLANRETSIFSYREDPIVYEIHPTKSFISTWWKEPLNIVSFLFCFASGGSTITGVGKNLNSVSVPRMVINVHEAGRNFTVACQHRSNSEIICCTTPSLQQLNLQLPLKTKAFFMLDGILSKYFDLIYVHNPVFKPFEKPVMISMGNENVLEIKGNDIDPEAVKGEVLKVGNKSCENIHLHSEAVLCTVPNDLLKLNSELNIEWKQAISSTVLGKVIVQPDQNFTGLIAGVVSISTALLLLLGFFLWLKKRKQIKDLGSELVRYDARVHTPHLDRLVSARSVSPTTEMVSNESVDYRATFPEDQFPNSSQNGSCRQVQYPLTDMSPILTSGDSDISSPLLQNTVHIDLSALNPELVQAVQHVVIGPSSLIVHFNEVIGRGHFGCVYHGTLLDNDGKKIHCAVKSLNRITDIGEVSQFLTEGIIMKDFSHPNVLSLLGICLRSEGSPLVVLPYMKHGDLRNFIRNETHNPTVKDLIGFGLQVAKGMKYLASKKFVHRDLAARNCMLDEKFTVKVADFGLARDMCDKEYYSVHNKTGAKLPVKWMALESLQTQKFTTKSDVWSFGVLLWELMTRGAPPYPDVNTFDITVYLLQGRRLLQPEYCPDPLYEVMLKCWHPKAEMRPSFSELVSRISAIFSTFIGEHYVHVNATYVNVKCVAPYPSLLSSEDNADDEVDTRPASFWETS
Chain of Mitogen-activated protein kinase 8 (Homo sapiens) (P45983 whole entry): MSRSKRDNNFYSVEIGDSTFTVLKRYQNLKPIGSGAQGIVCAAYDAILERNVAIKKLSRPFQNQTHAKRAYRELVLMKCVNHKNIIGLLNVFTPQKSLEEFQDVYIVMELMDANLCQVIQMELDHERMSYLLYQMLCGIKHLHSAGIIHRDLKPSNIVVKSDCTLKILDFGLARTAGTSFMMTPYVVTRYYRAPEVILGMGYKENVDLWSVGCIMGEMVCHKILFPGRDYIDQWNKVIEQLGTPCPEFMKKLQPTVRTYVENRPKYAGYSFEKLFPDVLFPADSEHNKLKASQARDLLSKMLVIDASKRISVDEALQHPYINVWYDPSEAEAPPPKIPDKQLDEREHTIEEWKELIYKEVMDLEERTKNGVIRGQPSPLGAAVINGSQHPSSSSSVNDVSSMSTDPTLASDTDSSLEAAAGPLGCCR
Chain of Serine/threonine-protein kinase 32B (Homo sapiens) (Q9NY57 whole entry): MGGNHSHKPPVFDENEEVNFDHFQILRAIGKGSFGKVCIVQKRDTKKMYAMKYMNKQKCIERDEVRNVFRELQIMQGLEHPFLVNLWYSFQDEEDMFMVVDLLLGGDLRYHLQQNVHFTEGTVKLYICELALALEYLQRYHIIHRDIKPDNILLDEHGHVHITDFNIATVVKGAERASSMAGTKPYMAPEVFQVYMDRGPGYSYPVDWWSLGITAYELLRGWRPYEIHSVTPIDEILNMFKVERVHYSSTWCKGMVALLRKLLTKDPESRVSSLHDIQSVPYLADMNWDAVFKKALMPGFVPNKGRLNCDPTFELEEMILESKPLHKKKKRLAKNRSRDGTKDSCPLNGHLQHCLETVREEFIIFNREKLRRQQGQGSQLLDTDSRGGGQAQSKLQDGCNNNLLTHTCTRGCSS
Chain of Serine/threonine-protein kinase Nek7 (Homo sapiens) (Q8TDX7 whole entry, looked up): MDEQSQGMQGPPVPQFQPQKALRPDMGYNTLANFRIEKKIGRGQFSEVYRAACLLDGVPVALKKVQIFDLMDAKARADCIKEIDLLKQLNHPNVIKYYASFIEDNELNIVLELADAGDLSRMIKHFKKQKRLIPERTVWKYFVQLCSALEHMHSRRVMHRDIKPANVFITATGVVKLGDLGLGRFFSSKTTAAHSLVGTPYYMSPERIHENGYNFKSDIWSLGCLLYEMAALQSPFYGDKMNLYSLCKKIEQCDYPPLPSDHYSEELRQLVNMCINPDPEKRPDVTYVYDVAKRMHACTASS
Chain of Dual specificity mitogen-activated protein kinase kinase 7 (Homo sapiens) (O14733 whole entry): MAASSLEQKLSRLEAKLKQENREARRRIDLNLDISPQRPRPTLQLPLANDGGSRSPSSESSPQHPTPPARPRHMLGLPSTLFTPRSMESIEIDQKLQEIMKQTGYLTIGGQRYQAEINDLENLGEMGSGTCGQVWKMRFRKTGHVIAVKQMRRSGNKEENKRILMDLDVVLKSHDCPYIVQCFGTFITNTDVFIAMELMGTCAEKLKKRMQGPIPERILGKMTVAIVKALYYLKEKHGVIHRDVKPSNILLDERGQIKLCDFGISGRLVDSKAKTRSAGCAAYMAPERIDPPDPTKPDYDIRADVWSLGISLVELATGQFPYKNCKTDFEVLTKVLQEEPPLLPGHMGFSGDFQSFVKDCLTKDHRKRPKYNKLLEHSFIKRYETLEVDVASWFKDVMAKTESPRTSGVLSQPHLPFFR

`CS(=O)(=O)c1ccc(-n2nc(-c3cnc4[nH]ccc4c3)c3c(N)ncnc32)cc1` gave an inhibition [1] of 9%, an inhibition [2] of 7% and an inhibition [3] of 1%. The inhibition [4] was 94%, the inhibition [5] was 7% and the inhibition [6] was 76%. It also gave an inhibition [7] of -1%, an inhibition [8] of 3% and an inhibition [9] of 7%. It also gave an inhibition [10] of -2%, an inhibition [11] of 69% and an inhibition [12] of 70%. For the same compound, the inhibition [13] was 92%, the inhibition [14] was 69% and the inhibition [15] was 3%. It also gave an inhibition [16] of -4%, an inhibition [17] of 1% and an inhibition [18] of 79%. For the same compound, the inhibition [19] was -4%, the inhibition [20] was 15% and the inhibition [21] was 7%. It also gave a remaining at 0.5 h, 1 µM [22] of 63% and an inhibition [23] of -4%.
